Measured values taken from patent US20110289824A1, “COMPOUNDS, METHODS, AND DEVICES FOR DETECTING AND/OR TREATING INSECT INFESTATION” (priority 2010, published 2011).

How the values were obtained:
[1] = test system: Cimex lectularius (adults); assay: Device choice test in arenas: compound device vs mixture device vs untreated control (Tables 2 and 3); assay type: in vivo; conditions: 1.0 mg of each compound per device (Device A), 20 bugs per arena, against mixture device and UTC
Procedure: The attraction, arresting, or aggregation of bed bugs from the species Cimex lectularius to cholesterol, 2-Heptanone, and 2-Heptanone oxime was evaluated in Tables 2 and 3 by the following methodology. In this example, 20 Cimex lectularius (adults) were placed in plastic boxes (20×20 cm). The bottom of each box was covered with paper. A piece of folded filter paper served as a shelter for the Cimex lectularius bed bugs. The bed bugs were fed two days before they were put into the test-arenas. As set forth in Table 2, three types of devices were compared: Device (A): a device containing cholesterol (Box 1), a device containing 2-Heptanone (Box 2), a device containing 2-Heptanone-oxime (Box 3), and a device containing 2-Heptanone and 2-Heptanone-oxime (Box 4); Device (B): a device containing a mixture of cholesterol, 2-Heptanone, and 2-Heptanone-oxime (Box 1-4); and Device (C) a device without an attractant, arresting, or aggregating compound, serving as a control (“UTC”). The concentrations of the compounds tested are as follows: Cholesterol—1% in ethanol, 0.1 ml per detection device (1 mg a.i.); 2-Heptanone—1% in ethanol, 0.1 ml per detection device (1 mg a.i.); and 2-Heptanone oxime—1% in ethanol, 0.1 ml per detection device (1 mg a.i.). [table] The number of bed bugs in the different devices and on the bottom of the arenas were counted at day 1, day 4, and day 7 after the start of the trial. The total number of bugs per arena was 20. The relative effectiveness of cholesterol, 2-Heptanone, and 2-Heptanone-oxime in attracting, arresting, or aggregating bed bugs was evaluated in Table 3.

[2] = test system: Cimex lectularius (adults); assay: Device choice test in arenas: treated device vs untreated control at 0.1 mg and 0.5 mg (Tables 4 and 5); assay type: in vivo; conditions: 20 bugs per arena, against UTC device
Procedure: In this example, 20 Cimex lectularius (adults) were placed in plastic boxes (20×20 cm). The bottom of each box was covered with paper. A piece of folded filter paper served as a shelter for the Cimex lectularius bed bugs. The bed bugs were fed two days before they were put into the test-arenas. As set forth in Table 4, the ability of 2-Heptanone and 2-Heptanone-oxime to attract bed bugs at a concentration of 0.1 mg and 0.5 mg was evaluated. Device (A) includes 2-Heptanone, 2-Heptanone oxime, or both 2-Heptanone and 2-Heptanone oxime. Device (B) served as an untreated control. [table] […] The total number of bugs per arena was 20.

Row | SMILES | Number of bed bugs in the device (Compounds) ([1]; day 1) | Number of bed bugs in the device (Compounds) ([1]; day 4) | Number of bed bugs in the device (Compounds) ([1]; day 7) | Number of bed bugs in the device (Compounds + concentrations) ([2]; 0.1 mg per device, day 1) | Number of bed bugs in the device (Compounds + concentrations) ([2]; 0.1 mg per device, day 3) | Number of bed bugs in the device (Compounds + concentrations) ([2]; 0.1 mg per device, day 6) | Number of bed bugs in the device (Compounds + concentrations) ([2]; 0.5 mg per device, day 1) | Number of bed bugs in the device (Compounds + concentrations) ([2]; 0.5 mg per device, day 3) | Number of bed bugs in the device (Compounds + concentrations) ([2]; 0.5 mg per device, day 6)
1 | CC(C)CCC[C@@H](C)[C@H]1CC[C@H]2[C@@H]3CC=C4C[C@@H](O)CC[C@]4(C)[C@H]3CC[C@]12C [Cholesterol, cholesterol] | 1 | 1 | 1 | – | – | – | – | – | –
2 | CCCCCC(C)=O [2-Heptanone] | 2 | 2 | 2 | 0 | 0 | 1 | 0 | 0 | 1
3 | CCCCCC(C)=NO [2-Heptanone-oxime, 2-Heptanone oxime] | 13 | 13 | 13 | 12 | 14 | 15 | 8 | 11 | 12
